Data on eleven molecules can be found in US9630957B2, “2,3-butanediamide epoxide compound and preparation method and use thereof” (Institute of Pharmacology and Toxicology Academy of …, priority 2014, dated 2017).

Series [1] concerns enterovirus EV71 (BrCr strain). Briefly: Activity screening for anti-enterovirus EV71: inhibition of cytopathic effect in Vero cells. The class given is cell-based. As to conditions: for IC50: 100TCID50, Vero cells, CPE read when virus control reaches 4+, read-out: IC50 (half inhibitory concentration for enterovirus EV71); for SI (Selectivity Index = TC50/IC50): Vero cells. The procedure: Test item: Activity screening of the compounds for anti-enterovirus EV71
Test principle: Vero cells are used as viral host. The inhibition of the compound of the invention on the degree of cytopathic effect of Vero cells caused by enterovirus virus EV71 is determined.
1. Virus strain: enterovirus EV71 (BrCr, American Type Culture Collection, ATCC)
(§1) 2. Sample treatment: the compounds of the present invention are dissolved in DMSO or diluent to prepare stock solution which is stored at −20° C. The stock solution is formulated to suitable incipient concentration with culture solution immediately before use, and then 3-fold diluted with the culture solution, 8 degrees of dilution each.
3. Positive control drug: Pirodavir (LGM Pharma), which is a broad-spectrum anti-viral inhibitor.
(§2) 4. Test Method: Vero cells are seeded into a 96-well culture plate, at 5% CO2, and cultured at 37° C. for 16 hours. The Vero cells are added with different dilutions of drugs, and the degree of cytopathic effect (CPE) in each group is observed. The half toxic concentration (TC50) of each sample for Vero cells is calculated. Vero cells are added with 100TCID50 enterovirus EV71 respectively, and the virus solution is discarded after adsorption at 37° C. for 1 hour, and then drugs with various degrees of dilution are added respectively. Virus control and cell control are set and incubated at 37° C. The degree of cytopathic effect (CPE) in each group is observed when the degree of cytopathic effect (CPE) of virus control group reaches 4+. The half inhibitory concentration (IC50) of each sample for enterovirus EV71 are calculated. Selectivity Index (SI) is calculated according to the following equation: SI=TC50/IC50.
(Damage to the host cells serves as the signal in cytopathic effect assays.)

The test system of another series is Vero cells. Briefly: Cytotoxicity of the compounds for Vero cells (CPE observation, TC50). It is filed as cell-based. As to conditions: no virus. The procedure: as §1, §2

In brackets after ≈: the same amount, converted by molar mass.

By melting point is commonly meant the temperature of the solid-liquid transition. Molecule `O=C(Nc1nc2ccccc2s1)c1ccc(N(Cc2ccc(F)cc2)C(=O)[C@H]2O[C@@H]2C(=O)Nc2cccc(Cl)c2)cc1` [Compound 23, (2S,3S)—N^2-(4-(benzo[d]thiazol-2-ylcarbamoyl)phenyl)-N^3-(3-chlorophenyl)-N^2-(4-fluorobenzyl)-2,3-epoxybutanediamide] had a melting point of 209.8 to 210.3 °C. The IC50 in series [1] was above 0.82 µg/mL. The “TC50 (half toxic concentration for Vero cells)” value in the series with Vero cells came to 1.43 µg/mL.

Turning to `O=C(Nc1cccc(Cl)c1)[C@H]1O[C@@H]1C(=O)N(Cc1ccccc1)c1ccccc1` [Compound 8, (2S,3S)—N^2-benzyl-N^2-phenyl-N^3-(3-chlorophenyl)-2,3-epoxybutanediamide], the melting point lay within 179.2 to 179.6 °C. In series [1], the IC50 was found to be 0.27 µg/mL (≈ 0.664 µM) and the “SI (Selectivity Index = TC50/IC50)” value is on record as 15.85. Besides, the “TC50 (half toxic concentration for Vero cells)” value with Vero cells turned out to be 4.28 µg/mL.

`O=C(Nc1nc2ccccc2s1)c1ccc(N(Cc2ccc(F)cc2)C(=O)[C@H]2O[C@@H]2C(=O)Nc2ccc(F)cc2)cc1` [Compound 29, (2S,3S)—N^2-(4-(benzo[d]thiazol-2-ylcarbamoyl)phenyl)-N^3-(4-fluorophenyl)-N^2-(4-fluorobenzyl)-2,3-epoxybutanediamide] showed a melting point of 199.7 to 200.5 °C. In series [1], the IC50 was above 0.82 µg/mL. Also, the “TC50 (half toxic concentration for Vero cells)” value in the series on Vero cells was 1.43 µg/mL.

With `COc1ccc(NC(=O)[C@H]2O[C@@H]2C(=O)N(Cc2ccc(F)cc2)c2ccc(C(=O)Nc3nc4ccccc4s3)cc2)cc1OC` [Compound 17, (2S,3S)—N^2-(4-(benzo[d]thiazol-2-ylcarbamoyl)phenyl)-N^3-(3,4-dimethoxyphenyl)-N^2-(4-fluorobenzyl)-2,3-epoxybutanediamide], the melting point was 205.6 to 206.3 °C. In series [1], the IC50 came to 38.5 µg/mL (≈ 61.4 µM) and the “SI (Selectivity Index = TC50/IC50)” value is 3.00. Besides, the “TC50 (half toxic concentration for Vero cells)” value with Vero cells was found to be 115.47 µg/mL.

As for `COc1ccc(NC(=O)[C@H]2O[C@@H]2C(=O)N(Cc2ccccc2)c2ccc(C(=O)Nc3nc4ccccc4s3)cc2)cc1OC` [Compound 39, (2S,3S)—N^2-(4-(benzo[d]thiazol-2-ylcarbamoyl)phenyl)-N^2-benzyl-N^3-(3,4-dimethoxyphenyl)-2,3-epoxybutanediamide], the melting point is 224.5 to 226 °C. In addition, in series [1], the IC50 is 4.28 µg/mL (≈ 7.03 µM) and the “SI (Selectivity Index = TC50/IC50)” value stood at 7.49. The “TC50 (half toxic concentration for Vero cells)” value in the series on Vero cells is 32.05 µg/mL.

For `COC(=O)c1cnc(NC(=O)[C@H]2O[C@@H]2C(=O)N(Cc2ccc(F)cc2)c2ccc(C(=O)Nc3nc4ccccc4s3)cc2)s1` [Compound 36, (2S,3S)—N^2-(4-(benzo[d]thiazol-2-ylcarbamoyl)phenyl)-N^2-(4-fluorobenzyl)-N^3-(5-methoxycarbonylthiazol-2-yl)-2,3-epoxybutanediamide], the melting point was 219.8 to 220.2 °C. In addition, the IC50 in series [1] was above 0.82 µg/mL. Also, the “TC50 (half toxic concentration for Vero cells)” value in the series with Vero cells turned out to be 3.56 µg/mL.

Consider `Cc1c(Cl)cccc1NC(=O)[C@H]1O[C@@H]1C(=O)N(Cc1ccc(F)cc1)c1ccc(C(=O)Nc2nc3ccccc3s2)cc1` [Compound 28, (2S,3S)—N^2-(4-(benzo[d]thiazol-2-ylcarbamoyl)phenyl)-N^3-(2-methyl-3-chlorophenyl)-N^2-(4-fluorobenzyl)-2,3-epoxybutanediamide], for which the melting point was in the range of 210.3 to 211.1 °C. The IC50 in series [1] was above 0.27 µg/mL. Also, the “TC50 (half toxic concentration for Vero cells)” value in the series on Vero cells amounted to 0.82 µg/mL.

`O=C(Nc1nc2ccccc2s1)c1ccc(N(Cc2ccc(F)cc2)C(=O)[C@H]2O[C@@H]2C(=O)Nc2ccc([N+](=O)[O-])cc2)cc1` [Compound 24, (2S,3S)—N^2-(4-(benzo[d]thiazol-2-ylcarbamoyl)phenyl)-N^3-(4-nitrophenyl)-N^2-(4-fluorobenzyl)-2,3-epoxybutanediamide] displayed a melting point of 203.5 to 204.2 °C. In addition, in series [1], the IC50 is above 0.82 µg/mL. In addition, the “TC50 (half toxic concentration for Vero cells)” value in the series with Vero cells was found to be 1.43 µg/mL.

In turn, `O=C(Nc1nc2ccccc2s1)c1ccc(N(Cc2ccc(F)cc2)C(=O)[C@H]2O[C@@H]2C(=O)Nc2cccc(F)c2)cc1` [Compound 30, (2S,3S)—N^2-(4-(benzo[d]thiazol-2-ylcarbamoyl)phenyl)-N^3-(3-fluorophenyl)-N^2-(4-fluorobenzyl)-2,3-epoxybutanediamide] registered a melting point of 202.4 to 203.1 °C. Moreover, in series [1], the IC50 was determined as 0.36 µg/mL (≈ 0.616 µM) and the “SI (Selectivity Index = TC50/IC50)” value stood at 3.97. The “TC50 (half toxic concentration for Vero cells)” value in the series on Vero cells came to 1.43 µg/mL.

`O=C(Nc1ccccc1Cl)[C@H]1O[C@@H]1C(=O)N(Cc1ccccc1)c1ccccc1` [Compound 11, (2S,3S)—N^2-benzyl-N^2-phenyl-N^3-(2-chlorophenyl)-2,3-epoxybutanediamide] returned a melting point of 117.3 to 118.2 °C. Moreover, in series [1], the IC50 was 0.15 µg/mL (≈ 0.369 µM) and the “SI (Selectivity Index = TC50/IC50)” value amounted to 9.53. Besides, in the series with Vero cells, the “TC50 (half toxic concentration for Vero cells)” value was 1.43 µg/mL.

With `O=C(Nc1nc2ccccc2s1)c1ccc(N(Cc2ccc(F)cc2)C(=O)[C@H]2O[C@@H]2C(=O)Nc2ccc(Cl)cc2)cc1` [Compound 19, (2S,3S)—N^2-(4-(benzo[d]thiazol-2-ylcarbamoyl)phenyl)-N^3-(4-chlorophenyl)-N^2-(4-fluorobenzyl)-2,3-epoxybutanediamide], the melting point is 198.7 to 199.5 °C. Further, in series [1], the IC50 is above 0.82 µg/mL. Further, the “TC50 (half toxic concentration for Vero cells)” value with Vero cells turned out to be 1.43 µg/mL.
